Measurements from ChEMBL document CHEMBL1649339, “Abietane and C20-norabietane diterpenes from the stem bark of Fraxinus sieboldiana and their biological activities” (J Nat Prod, 2010).

How the values were obtained:
HCT-8 = assay: Cytotoxicity against human HCT8 cells after 24 hrs by MTT assay; format: functional, cell-based; settings: HCT-8, 24 h
Bel-7402 = assay: Cytotoxicity against human Bel7402 cells after 24 hrs by MTT assay; format: functional, cell-based; settings: Bel-7402, 24 h
BGC-823 = assay: Cytotoxicity against human BGC823 cells after 24 hrs by MTT assay; format: functional, cell-based; settings: BGC-823, 24 h
A549 = assay: Cytotoxicity against human A549 cells after 24 hrs by MTT assay; format: functional, cell-based; settings: A549, 24 h
A2780 = assay: cells; settings: Homo sapiens, A2780, 24 h
Description: Cytotoxicity against human A2780 cells after 24 hrs by MTT assay

[1] = Antiinflammatory activity in PAF-induced rat Polymorphonuclear leukocyte assessed as inhibition of beta-glucuronidase release at 10^-5 M; format: functional
Influenza A virus = assay: microbe, parasite or virus in culture; format: functional, organism-based; settings: HEK-293T

`CCO[C@@H]1OC[C@@]2(C)CCC[C@@]13c1cc(O)c(C(C)C)cc1C(=O)C[C@@H]23` gave an IC50 (HCT-8) of over 10 µM, an IC50 (Bel-7402) of over 10 µM and an IC50 (BGC-823) of over 10 µM. The IC50 (A549) was over 10 µM and the IC50 (A2780) was over 10 µM.

`CC(C)c1cc2c(cc1O)[C@@]1(O)CCCC(C)(C)[C@@H]1CC2=O` gave an IC50 (HCT-8) of over 10 µM, an IC50 (Bel-7402) of over 10 µM and an IC50 (BGC-823) of over 10 µM. It also gave an IC50 (A549) of over 10 µM and an IC50 (A2780) of over 10 µM.

Molecule `CC(C)C1=C[C@]2(O)CC[C@H]3[C@]4(C)CCC[C@]3(C(=O)OC4)C2=CC1=O` has an IC50 (HCT-8) of over 10 µM, an IC50 (Bel-7402) of over 10 µM and an IC50 (BGC-823) of over 10 µM. It also gave an IC50 (A549) of over 10 µM and an IC50 (A2780) of over 10 µM.

For `CC(C)C1=C[C@]23CC[C@H]4[C@]5(C)CCC[C@@]4(C2=CC1=O)[C@@H](OC5)O3`, the IC50 (HCT-8) was over 10 µM, the IC50 (Bel-7402) was over 10 µM and the IC50 (BGC-823) was over 10 µM. The IC50 (A549) was over 10 µM and the IC50 (A2780) was over 10 µM.

In the case of `CC(C)C1=C[C@]23O[C@H]2[C@H]2OC(=O)[C@@]4(CCCC(C)(C)[C@H]24)C3=CC1=O`, the IC50 (HCT-8) is reported as over 10 µM, the IC50 (Bel-7402) is reported as over 10 µM and the IC50 (BGC-823) is reported as over 10 µM. The IC50 (A549) was over 10 µM and the IC50 (A2780) was 1.7 µM.

`CC(C)c1cc2c(cc1O)[C@]13CCC[C@](C)(COC1=O)[C@@H]3CC2` gave an IC50 (HCT-8) of over 10 µM, an IC50 (Bel-7402) of over 10 µM and an IC50 (BGC-823) of over 10 µM. For the same molecule, the IC50 (A549) was over 10 µM and the IC50 (A2780) was over 10 µM.

Work on `CC(C)c1cc2c(cc1O)[C@@]13CCCC(C)(C)[C@@H]1[C@H](OC3=O)[C@@H]2O` yielded an IC50 (HCT-8) of over 10 µM, an IC50 (Bel-7402) of over 10 µM and an IC50 (BGC-823) of over 10 µM. The IC50 (A549) was 6 µM and the IC50 (A2780) was over 10 µM.

In the case of `CC(C)c1cc2c(cc1O)[C@@]13CCCC(C)(C)[C@@H]1[C@H](OC3=O)[C@H]2O`, the IC50 (HCT-8) is reported as over 10 µM, the IC50 (Bel-7402) is reported as over 10 µM and the IC50 (BGC-823) is reported as over 10 µM. It also gave an IC50 (A549) of over 10 µM and an IC50 (A2780) of over 10 µM.

Molecule `CC(C)c1cc2c(cc1O)[C@@]13CCCC(C)(C)[C@@H]1[C@H](OC3=O)C2=O` has an IC50 (HCT-8) of over 10 µM, an IC50 (Bel-7402) of over 10 µM and an IC50 (BGC-823) of over 10 µM. The IC50 (A549) was over 10 µM and the IC50 (A2780) was over 10 µM.

For `CC(C)c1cc2c(cc1O)[C@]13CCC[C@]4(C)CO[C@@H]1O[C@H]2C[C@@H]43`, the IC50 (HCT-8) was over 10 µM, the IC50 (Bel-7402) was over 10 µM and the IC50 (BGC-823) was over 10 µM. For the same molecule, the IC50 (A549) was over 10 µM, the inhibition at 10 µM [1] was 59.7% and the IC50 (A2780) was over 10 µM.

In the case of `CC(C)c1cc2c(cc1O)[C@]13CCC[C@](C)(CO[C@H]1O)[C@@H]3CC2`, the IC50 (HCT-8) is reported as over 10 µM, the IC50 (Bel-7402) is reported as over 10 µM and the IC50 (BGC-823) is reported as over 10 µM. It also gave an IC50 (A549) of over 10 µM and an IC50 (A2780) of over 10 µM.

`CC(C)c1cc2c(cc1O)[C@]13CCC[C@](C)(CO[C@@H]1O)[C@@H]3CC2` showed an IC50 (HCT-8) of over 10 µM, an IC50 (Bel-7402) of over 10 µM and an IC50 (BGC-823) of over 10 µM. For the same molecule, the IC50 (A549) was over 10 µM and the IC50 (A2780) was over 10 µM.

Molecule `CO[C@@H]1OC[C@@]2(C)CCC[C@@]13c1cc(O)c(C(C)C)cc1CC[C@@H]23` has an IC50 (HCT-8) of over 10 µM, an IC50 (Bel-7402) of over 10 µM and an IC50 (BGC-823) of over 10 µM. It also gave an IC50 (A549) of over 10 µM and an IC50 (A2780) of over 10 µM.

`CO[C@H]1OC[C@@]2(C)CCC[C@@]13c1cc(O)c(C(C)C)cc1CC[C@@H]23` gave an IC50 (HCT-8) of over 10 µM, an IC50 (Bel-7402) of over 10 µM and an IC50 (BGC-823) of over 10 µM. For the same molecule, the IC50 (A549) was over 10 µM and the IC50 (A2780) was over 10 µM.

In the case of `CCO[C@@H]1OC[C@@]2(C)CCC[C@@]13c1cc(O)c(C(C)C)cc1CC[C@@H]23`, the IC50 (HCT-8) is reported as over 10 µM, the IC50 (Bel-7402) is reported as over 10 µM and the IC50 (BGC-823) is reported as over 10 µM. For the same molecule, the IC50 (A549) was over 10 µM and the IC50 (A2780) was over 10 µM.

For `CC(C)c1cc2c(cc1O)[C@H]1CCCC(C)(C)[C@@H]1CC2=O`, the IC50 (HCT-8) was over 10 µM, the IC50 (Bel-7402) was over 10 µM and the IC50 (BGC-823) was over 10 µM. The IC50 (A549) was over 10 µM, the inhibition at 10 µM [1] was 56.1% and the IC50 (A2780) was over 10 µM.

For `CC(C)c1cc2c(cc1O)[C@@]1(O)CCC[C@](C)(CO)[C@@H]1CC2=O`, the IC50 (HCT-8) was over 10 µM, the IC50 (Bel-7402) was over 10 µM and the IC50 (BGC-823) was over 10 µM. The IC50 (A549) was over 10 µM and the IC50 (A2780) was over 10 µM.

With `CC(C)c1cc2c(cc1O)C1=C(CC2)C(C)(C)CC[C@H]1O` the IC50 (HCT-8) was over 10 µM, the IC50 (Bel-7402) was over 10 µM and the IC50 (BGC-823) was over 10 µM. The IC50 (A549) was over 10 µM and the IC50 (A2780) was over 10 µM.

With `CC(C)c1cc2ccc3c(c2cc1O)C(=O)CCC3(C)C` the IC50 (HCT-8) was over 10 µM, the IC50 (Bel-7402) was over 10 µM and the IC50 (BGC-823) was over 10 µM. It also gave an IC50 (A549) of over 10 µM and an IC50 (A2780) of over 10 µM.

In the case of `CC(C)c1cc2c(cc1O)C1=CC(=O)CC(C)(C)[C@@H]1CC2`, the IC50 (HCT-8) is reported as over 10 µM, the IC50 (Bel-7402) is reported as over 10 µM and the IC50 (BGC-823) is reported as over 10 µM. The IC50 (A549) was over 10 µM and the IC50 (A2780) was over 10 µM.

`CCO[C@@H]1C[C@@H]2C(=CC(=O)CC2(C)C)c2cc(O)c(C(C)C)cc21` showed an IC50 (HCT-8) of over 10 µM, an IC50 (Bel-7402) of over 10 µM and an IC50 (BGC-823) of over 10 µM. For the same molecule, the IC50 (A549) was over 10 µM and the IC50 (A2780) was over 10 µM.

`CC(C)c1cc2c(cc1O)[C@@]1(C=O)CCCC(C)(C)[C@@H]1CC2` showed an IC50 (HCT-8) of over 10 µM, an IC50 (Bel-7402) of over 10 µM and an IC50 (BGC-823) of over 10 µM. It also gave an IC50 (A549) of over 10 µM and an inhibition at 10 µM [1] of 65.9%.

In the case of `CC(C)c1ccc2c(c1)C(=O)C[C@H]1C(C)(C)CCC[C@]21C`, the IC50 (HCT-8) is reported as over 10 µM, the IC50 (Bel-7402) is reported as over 10 µM and the IC50 (BGC-823) is reported as over 10 µM. It also gave an IC50 (A549) of over 10 µM, an IC50 (Influenza A virus) of 4.8 µM and an IC50 (A2780) of over 10 µM.

With `CC[C@@]1(O)C(=O)OCc2c1cc1n(c2=O)Cc2cc3ccccc3nc2-1` [CAMPTOTHECIN] the IC50 (A549) was 3.6 µM and the IC50 (A2780) was 0.2 µM.
